From patent US8921569B2, “Rationally improved isoniazid and ethionamide derivatives and activity through selective isotopic substitution” (STC.UNM, priority 2007, dated 2014)

Key:
M bovis BCG [1] = type: cell-based; settings: O 1 micrograms per ml, cultures at day 4 plated out
M bovis BCG [2] = type: cell-based; settings: O 1 micrograms per ml, 3 or 4 days after treatment, triplicate cultures

NN[13C](=O)c1ccncc1 [C13 INH, 4-pyridine-[^13C]carboxylic acid hydrazide]
activity by CFU (colony forming units), compared with 12C isoniazid (M bovis BCG [1]): marked expected increase in activity
antimicrobial effects by cultures optical density, compared with 12C isoniazid (M bovis BCG [2]): significant increase in activity
